ChEMBL document CHEMBL3085759, “Structure-activity relationship (SAR) and preliminary mode of action studies of 3-substituted benzylthioquinolinium iodide as anti-opportunistic infection agents” (Eur J Med Chem, 2013)
In brackets after ≈: the same amount, converted by molar mass. Activity calls are given as the source filed them. The rule behind the calls is not given here.

Columns and labels:
[1] = Cytotoxicity against african green monkey Vero cells after 48 hrs by Neutral Red dye assay; type: cell-based; conditions: chlorocebus sabaeus, read-out: TC50
Staphylococcus aureus [2] = assay: Antimicrobial activity against methicillin-resistant Staphylococcus aureus ATCC 33591 by Alamar blue method; type: functional, organism-based
Cryptococcus neoformans = assay: Antimicrobial activity against Cryptococcus neoformans ATCC 90113 by Alamar blue method; type: functional, organism-based
[3] = system: Mycobacterium intracellulare; assay: Antimicrobial activity against Mycobacterium intracellulare ATCC 23068 by Alamar blue method; type: functional, organism-based
Aspergillus fumigatus = assay: Antimicrobial activity against Aspergillus fumigatus ATCC 204305 by Alamar blue method; type: functional, organism-based
Staphylococcus aureus [4] = assay: Antimicrobial activity against Staphylococcus aureus ATCC 29213 by Alamar blue method; type: functional, organism-based
Nakaseomyces glabratus [5] = assay: Antimicrobial activity against Candida glabrata by Alamar blue method; type: functional, organism-based
Candida albicans = assay: Antimicrobial activity against Candida albicans ATCC 90028 by Alamar blue method; type: functional, organism-based
Pichia kudriavzevii [6] = assay: Antimicrobial activity against Candida krusei ATCC 6258 by Alamar blue method; type: functional, organism-based
[7] = Selectivity index, ratio of TC50 for african green monkey Vero cells to IC50 for Cryptococcus neoformans ATCC 90113; type: toxicity, cell-based; conditions: read-out: Selectivity Index
Nakaseomyces glabratus [8] = assay: Ratio of fluconazole MFC to compound MFC for Candida glabrata by Alamar blue method; type: functional
Pichia kudriavzevii [9] = assay: Ratio of fluconazole MFC to compound MFC for Candida krusei ATCC 6258 by Alamar blue method; type: functional
Nakaseomyces glabratus [10] = assay: Antimicrobial activity against Candida glabrata at 20 ug/ml by Alamar blue method; type: functional, organism-based
Vero = assay: Cytotoxicity against african green monkey Vero cells at 10 ug/ml after 48 hrs by Neutral Red dye assay; type: cell-based; conditions: chlorocebus sabaeus
Saccharomyces cerevisiae = assay: Antimicrobial activity against Saccharomyces cerevisiae expressing rad52 mutant gene assessed as increase in sensitivity at 20 umol/L by spectrophotometry relative to wild type; type: functional
[11] = Staphylococcus aureus, ATCC 29213
[12] = Staphylococcus aureus, ATCC 29213, read-out: IC50

Row | SMILES | IC50 (Staphylococcus aureus [2]) [µg/mL] | MBC (Staphylococcus aureus [2]) [µg/mL] | MIC (Staphylococcus aureus [2]) [µg/mL] | MFC (Cryptococcus neoformans) [µg/mL] | MIC (Cryptococcus neoformans) [µg/mL] | IC50 [3] [µg/mL] | MBC [3] [µg/mL] | MIC [3] [µg/mL] | IC50 (Aspergillus fumigatus) [µg/mL] | MFC (Aspergillus fumigatus) [µg/mL] | MIC (Aspergillus fumigatus) [µg/mL] | IC50 (Nakaseomyces glabratus [5]) [µg/mL] | MFC (Nakaseomyces glabratus [5]) | MIC (Nakaseomyces glabratus [5]) | IC50 (Candida albicans) [µg/mL] | MFC (Candida albicans) | MIC (Candida albicans) | IC50 (Pichia kudriavzevii [6]) [µg/mL] | MFC (Pichia kudriavzevii [6]) [µg/mL] | MIC (Pichia kudriavzevii [6]) [µg/mL] | other results
1 | Cc1ccc(CSc2cc3ccccc3[n+](CCCCCC3CCCCC3)c2)cc1.[I-] | 0.49 | 2.5 | 1.3 | 0.31 | 0.31 | 7.5 | 10 | 10 | 4.5 | 10 | 10 | 3.1 | 5 µg/mL | 5 µg/mL | 1.4 | 5 µg/mL | 2.5 µg/mL | 0.27 | 1.3 | 1.3 | CC50 at 48 h [1]: 6.8 µg/mL; MBC (Staphylococcus aureus [4]; [11]): 2.5 µg/mL; MIC (Staphylococcus aureus [4]; [11]): 0.63 µg/mL; IC50 (Staphylococcus aureus [4]; [12]): 0.39 µg/mL
2 | FC(F)(F)c1ccc(CSc2cc3ccccc3[n+](CCCCCC3CCCCC3)c2)cc1.[I-] | 0.36 | 1.3 | 0.63 | 0.31 | 0.31 | 4.7 | 10 | 10 | 2.9 | 5 | 5 | 2.7 | 5 µg/mL | 5 µg/mL | 1.4 | 2.5 µg/mL | 2.5 µg/mL | 0.46 | 1.3 | 1.3 | CC50 at 48 h [1]: 7.9 µg/mL; MBC (Staphylococcus aureus [4]; [11]): 1.3 µg/mL; MIC (Staphylococcus aureus [4]; [11]): 0.63 µg/mL; IC50 (Staphylococcus aureus [4]; [12]): 0.28 µg/mL
3 | Cc1cccc(CSc2cc3ccccc3[n+](CCCCCC3CCCCC3)c2)c1.[I-] | 0.72 | 2.5 | 1.3 | 0.63 | 0.63 | 7.2 | 10 | 10 | 5.8 | 10 | 10 | 3.3 | 10 µg/mL | 5 µg/mL | 2 | 5 µg/mL | 5 µg/mL | 0.67 | 2.5 | 2.5 | CC50 at 48 h [1]: 5 µg/mL; MBC (Staphylococcus aureus [4]; [11]): 2.5 µg/mL; MIC (Staphylococcus aureus [4]; [11]): 1.3 µg/mL; IC50 (Staphylococcus aureus [4]; [12]): 0.64 µg/mL
4 | [I-].c1ccc2cc(Sc3cc4ccccc4[n+](CCCCCC4CCCCC4)c3)ccc2c1 | 0.35 | 2.5 | 0.63 | 0.16 | 0.16 | 4.2 | 10 | 5 | 1.2 | 2.5 | 2.5 | 0.87 | 2.5 µg/mL | 2.5 µg/mL | 0.42 | 2.5 µg/mL | 1.3 µg/mL | 0.09 | 0.63 | 0.63 | selectivity ratio [7]: > 111; IC50 (Cryptococcus neoformans): 0.09 µg/mL; Ratio (Nakaseomyces glabratus [8]): 79; MBC (Staphylococcus aureus [4]; [11]): 2.5 µg/mL; MIC (Staphylococcus aureus [4]; [11]): 0.63 µg/mL; IC50 (Staphylococcus aureus [4]; [12]): 0.34 µg/mL; Ratio (Pichia kudriavzevii [9]): 79
5 | OC(Cn1cncn1)(Cn1cncn1)c1ccc(F)cc1F [FLUCONAZOLE] | – | – | – | 13 (≈ 42.4 µM) | 6.3 (≈ 20.6 µM) | – | – | – | – | – | – | 27 (≈ 88.2 µM) | inactive | inactive | 0.12 (≈ 0.392 µM) | inactive | inactive | 27 (≈ 88.2 µM) | 50 (≈ 163 µM) | 50 (≈ 163 µM) | IC50 (Cryptococcus neoformans): 0.21 µg/mL (≈ 0.686 µM); Activity (Nakaseomyces glabratus [10]): inactive; Activity (Vero): Non-toxic
6 | Fc1ccc(CSc2cc3ccccc3[n+](CCCCCC3CCCCC3)c2)cc1.[I-] | 0.34 | 2.5 | 0.63 | 0.63 | 0.63 | 6.9 | 10 | 10 | 5.2 | 10 | 10 | 1.3 | 2.5 µg/mL | 2.5 µg/mL | 1.9 | 5 µg/mL | 5 µg/mL | 0.14 | 0.63 | 0.63 | MBC (Staphylococcus aureus [4]; [11]): 2.5 µg/mL; MIC (Staphylococcus aureus [4]; [11]): 0.63 µg/mL; IC50 (Staphylococcus aureus [4]; [12]): 0.34 µg/mL; Activity (Vero): Non-toxic
7 | Clc1cc(Cl)cc(CSc2cc3ccccc3[n+](CCCCCC3CCCCC3)c2)c1.[I-] | 1.3 | 10 | 2.5 | 1.3 | 1.3 | 3.1 | 5 | 5 | > 20 | > 20 | > 20 | > 20 | > 20 µg/mL | > 20 µg/mL | 2.8 | 5 µg/mL | 5 µg/mL | 17 | > 20 | > 20 | IC50 (Cryptococcus neoformans): 0.63 µg/mL; IC50 (Staphylococcus aureus [4]): Not Active; MBC (Staphylococcus aureus [4]): inactive; MIC (Staphylococcus aureus [4]): inactive; Activity (Vero): Non-toxic
8 | COc1cccc(CSc2cc3ccccc3[n+](CCCCCC3CCCCC3)c2)c1.[I-] | 0.33 | 1.3 | 0.63 | 2.5 | 0.63 | 3.7 | 5 | 5 | 10.9 | > 20 | 20 | 9.7 | 20 µg/mL | 20 µg/mL | 4.8 | 10 µg/mL | 10 µg/mL | 0.88 | 2.5 | 2.5 | IC50 (Cryptococcus neoformans): 0.35 µg/mL; MBC (Staphylococcus aureus [4]; [11]): 1.3 µg/mL; MIC (Staphylococcus aureus [4]; [11]): 0.63 µg/mL; IC50 (Staphylococcus aureus [4]; [12]): 0.28 µg/mL; Activity (Vero): Non-toxic
9 | Brc1cccc(CSc2cc3ccccc3[n+](CCCCCC3CCCCC3)c2)c1.[I-] | 0.21 | 0.63 | 0.31 | 1.3 | 0.63 | 3.2 | 5 | 5 | 4.8 | 10 | 10 | 1.4 | 2.5 µg/mL | 2.5 µg/mL | 2.6 | 5 µg/mL | 5 µg/mL | 0.4 | 0.63 | 0.63 | IC50 (Cryptococcus neoformans): 0.56 µg/mL; MBC (Staphylococcus aureus [4]; [11]): 0.63 µg/mL; MIC (Staphylococcus aureus [4]; [11]): 0.63 µg/mL; IC50 (Staphylococcus aureus [4]; [12]): 0.42 µg/mL; Activity (Vero): Non-toxic
10 | Oc1ccc(CSc2cc3ccccc3[n+](CCCCCC3CCCCC3)c2)cc1.[I-] | 0.34 | 5 | 0.63 | 10 | 10 | 2.2 | 5 | 2.5 | 16 | 20 | 20 | 7.9 | 20 µg/mL | 20 µg/mL | 11 | 20 µg/mL | 20 µg/mL | 0.56 | 1.3 | 1.3 | MBC (Staphylococcus aureus [4]; [11]): 2.5 µg/mL; MIC (Staphylococcus aureus [4]; [11]): 2.5 µg/mL; IC50 (Staphylococcus aureus [4]; [12]): 0.26 µg/mL; Activity (Vero): Non-toxic
11 | COc1cccc2c1C(=O)c1c(O)c3c(c(O)c1C2=O)C[C@@](O)(C(=O)CO)C[C@@H]3O[C@H]1C[C@H](N)[C@H](O)[C@H](C)O1 [DOXORUBICIN] | – | – | – | – | – | – | – | – | – | – | – | – | – | – | – | – | – | – | – | – | fold change (FC) (Saccharomyces cerevisiae): >100
12 | Fc1cccc(CSc2cc3ccccc3[n+](CCCCCC3CCCCC3)c2)c1.[I-] | 0.37 | 1.3 | 0.63 | 0.63 | 0.63 | 6.5 | 10 | 10 | 5.6 | 20 | 10 | 2.6 | 5 µg/mL | 5 µg/mL | 1.8 | 5 µg/mL | 5 µg/mL | 0.49 | 1.3 | 1.3 | MBC (Staphylococcus aureus [4]; [11]): 1.3 µg/mL; MIC (Staphylococcus aureus [4]; [11]): 0.63 µg/mL; IC50 (Staphylococcus aureus [4]; [12]): 0.44 µg/mL; Activity (Vero): Non-toxic
13 | Brc1ccc(CSc2cc3ccccc3[n+](CCCCCC3CCCCC3)c2)cc1.[I-] | 0.4 | 1.3 | 0.63 | 0.63 | 0.63 | 6.1 | 10 | 10 | 2.4 | 5 | 5 | 1.6 | 5 µg/mL | 5 µg/mL | 0.5 | 2.5 µg/mL | 1.3 µg/mL | 0.49 | 0.63 | 0.63 | IC50 (Cryptococcus neoformans): 0.22 µg/mL; MBC (Staphylococcus aureus [4]; [11]): 1.3 µg/mL; MIC (Staphylococcus aureus [4]; [11]): 0.63 µg/mL; IC50 (Staphylococcus aureus [4]; [12]): 0.4 µg/mL; Activity (Vero): Non-toxic
